The record followed here is ChEMBL document CHEMBL1127104, “L-708,474: The C5-cyclohexyl analogue of L-365,260, a selective high affinity ligand for the CCKB/gastrin receptor” (Bioorg Med Chem Lett, 1993).

Usually IC50 stands for the concentration needed to halve the response being measured. Low readings indicate greater potency, high ones weaker potency.

The experiment deals with T1, Cholecystokinin receptor type A (Rattus norvegicus, UniProt P30551).
T1 sequence (P30551 whole entry): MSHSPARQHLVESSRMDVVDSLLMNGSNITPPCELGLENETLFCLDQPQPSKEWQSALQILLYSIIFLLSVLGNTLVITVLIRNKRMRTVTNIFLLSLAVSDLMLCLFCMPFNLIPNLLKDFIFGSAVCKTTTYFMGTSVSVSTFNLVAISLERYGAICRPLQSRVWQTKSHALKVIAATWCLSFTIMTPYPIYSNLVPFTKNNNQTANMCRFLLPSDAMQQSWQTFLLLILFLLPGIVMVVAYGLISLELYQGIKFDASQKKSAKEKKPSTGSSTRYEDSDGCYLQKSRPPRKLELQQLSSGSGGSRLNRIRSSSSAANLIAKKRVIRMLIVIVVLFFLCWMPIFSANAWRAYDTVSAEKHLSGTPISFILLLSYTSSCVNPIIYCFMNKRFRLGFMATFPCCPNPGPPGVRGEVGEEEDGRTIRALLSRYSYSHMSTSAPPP
The experiment is described as follows: In vitro test for inhibition of [125I]CCK binding to Cholecystokinin type A receptor from rat pancreatic tissues was determined.
Turning to `Cc1cccc(NC(=O)NC2N=C(C3CCC3)c3ccccc3N(C)C2=O)c1` (stereo not drawn), the IC50 came out at 0.402 µM.

Molecule `Cc1cccc(NC(=O)NC2N=C(C3CCCC3)c3ccccc3N(C)C2=O)c1` (stereo not drawn) showed an IC50 of 0.0271 µM.

`Cc1cccc(NC(=O)N[C@@H]2N=C(c3ccccc3)c3ccccc3N(C)C2=O)c1` [L-365260] had an IC50 of 0.736 µM.
